pIC50: −log10 of the molar value.
System: MDA-MB-468 spheroids with HUVEC/MSC, viability
Test: Anticancer human tumor MDA-MB-468 cell line growth inhibition [PI3K];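 note: spheroids exposed to agents for seven days before readout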;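 for viability, T/C: 100% = DMSO vehicle control viability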
Conditions: for pIC50: curve of first compound; for viability, T/C: stronger effect = lower value; active = viability on the fitted dose curve at most 10% of control; inactive = the rest
Method in brief: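 Stroma-containing spheroids: tumor line, pooled-donor HUVEC, hMSC. Treatments: targeted agents with PI3K inhibitors. Dosing: clinically relevant, half-log spacing, 10 microM ceiling without known Cmax. Read-out: cell viability.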

[1] = second compound 0.00316 µM, first compound 0.0316 µM
[2] = second compound 0.00316 µM, first compound 0.1 µM
[3] = second compound 0.00316 µM, first compound 0.316 µM
[4] = second compound 0.00316 µM, first compound 1 µM
[5] = second compound 0.00316 µM, first compound 3.16 µM
[6] = second compound 0.00316 µM, first compound 10 µM
[7] = second compound 0.01 µM, first compound 0.0316 µM
[8] = second compound 0.01 µM, first compound 0.1 µM
[9] = second compound 0.01 µM, first compound 0.316 µM
[10] = second compound 0.01 µM, first compound 1 µM
[11] = second compound 0.01 µM, first compound 3.16 µM
[12] = second compound 0.01 µM, first compound 10 µM
[13] = second compound 0.0316 µM, first compound 0.0316 µM
[14] = second compound 0.0316 µM, first compound 0.1 µM
[15] = second compound 0.0316 µM, first compound 0.316 µM
[16] = second compound 0.0316 µM, first compound 1 µM
[17] = second compound 0.0316 µM, first compound 3.16 µM
[18] = second compound 0.0316 µM, first compound 10 µM
[19] = second compound 0.1 µM, first compound 0.0316 µM
[20] = second compound 0.1 µM, first compound 0.1 µM
[21] = second compound 0.1 µM, first compound 0.316 µM
[22] = second compound 0.1 µM, first compound 1 µM
[23] = second compound 0.1 µM, first compound 3.16 µM
[24] = second compound 0.1 µM, first compound 10 µM
[25] = second compound 0.316 µM, first compound 0.0316 µM
[26] = second compound 0.316 µM, first compound 0.1 µM
[27] = second compound 0.316 µM, first compound 0.316 µM
[28] = second compound 0.316 µM, first compound 1 µM
[29] = second compound 0.316 µM, first compound 3.16 µM
[30] = second compound 0.316 µM, first compound 10 µM
[31] = second compound 1 µM, first compound 0.0316 µM
[32] = second compound 1 µM, first compound 0.1 µM
[33] = second compound 1 µM, first compound 0.316 µM
[34] = second compound 1 µM, first compound 1 µM
[35] = second compound 1 µM, first compound 3.16 µM
[36] = second compound 1 µM, first compound 10 µM

C#Cc1c(F)ccc2cc(O)cc(-c3ncc4c(N5CC6CCC(C5)N6)nc(OCC56CCCN5CC(F)C6)nc4c3F)c12 (centres undefined) + COc1c(OCCCN2CCOCC2)ccc2c3n(c(=NC(=O)c4cnc(N)nc4)nc12)CCN3
inactive: viability, T/C [1] 89.4% | viability, T/C [2] 82.8% | viability, T/C [3] 96.7% | viability, T/C [4] 96.8% | viability, T/C [5] 84.5% | viability, T/C [6] 56.9% | viability, T/C [7] 72.7% | viability, T/C [8] 91.3% | viability, T/C [9] 87% | viability, T/C [10] 87% | viability, T/C [11] 77.7% | viability, T/C [12] 61% | viability, T/C [13] 76.5% | viability, T/C [14] 68.8% | viability, T/C [15] 74.2% | viability, T/C [16] 83.9% | viability, T/C [17] 72.4% | viability, T/C [18] 43.7% | viability, T/C [19] 53.9% | viability, T/C [20] 52% | viability, T/C [21] 61.3% | viability, T/C [22] 61.8% | viability, T/C [23] 52.8% | viability, T/C [24] 24.6% | viability, T/C [25] 25.1% | viability, T/C [26] 23% | viability, T/C [27] 25.9% | viability, T/C [28] 27.2% | viability, T/C [29] 20.1% | viability, T/C [30] 6.75%
5.44: pIC50 (second compound 0.1 µM)
active: viability, T/C [31] 2.58% | viability, T/C [32] 2.36% | viability, T/C [33] 2.21% | viability, T/C [34] 2.61% | viability, T/C [35] 1.99% | viability, T/C [36] 0.74%
5.11: pIC50 (second compound 0.0316 µM)
> 7.50: pIC50 (second compound 0.316 µM) | pIC50 (second compound 1 µM)
< 5.00: pIC50 (second compound 0.00316 µM) | pIC50 (second compound 0.01 µM)

C=CC(=O)N1CCN(c2nc(=O)n(-c3c(C)ccnc3C(C)C)c3nc(-c4c(O)cccc4F)c(F)cc23)C(C)C1 (centres undefined) + COc1c(OCCCN2CCOCC2)ccc2c3n(c(=NC(=O)c4cnc(N)nc4)nc12)CCN3
< 5.00: pIC50 (second compound 0.00316 µM) | pIC50 (second compound 0.01 µM) | pIC50 (second compound 0.0316 µM) | pIC50 (second compound 0.1 µM)
> 7.50: pIC50 (second compound 0.316 µM) | pIC50 (second compound 1 µM)
active: viability, T/C [31] 4.14% | viability, T/C [32] 3.02% | viability, T/C [33] 3.41% | viability, T/C [34] 3.9% | viability, T/C [35] 3.76% | viability, T/C [36] 2.73%
inactive: viability, T/C [1] 92% | viability, T/C [2] 92.9% | viability, T/C [3] 97.5% | viability, T/C [4] 109% | viability, T/C [5] 104% | viability, T/C [6] 79.1% | viability, T/C [7] 81.1% | viability, T/C [8] 80.5% | viability, T/C [9] 102% | viability, T/C [10] 97% | viability, T/C [11] 99.7% | viability, T/C [12] 70.1% | viability, T/C [13] 75.2% | viability, T/C [14] 73.4% | viability, T/C [15] 79.8% | viability, T/C [16] 89.7% | viability, T/C [17] 80.2% | viability, T/C [18] 65% | viability, T/C [19] 56.7% | viability, T/C [20] 58.4% | viability, T/C [21] 50.9% | viability, T/C [22] 63.1% | viability, T/C [23] 61.5% | viability, T/C [24] 41.3% | viability, T/C [25] 29.9% | viability, T/C [26] 26.6% | viability, T/C [27] 27.8% | viability, T/C [28] 31.4% | viability, T/C [29] 28.2% | viability, T/C [30] 18.4%
